We go through 10 molecules from patent US20240150293A1, “SPIROCYCLOHEXANE DERIVATIVES, PHARMACEUTICAL COMPOSITIONS CONTAINING THEM AND THEIR USES AS ANTI-APOPTOTIC INHIBITORS” (LES LABORATOIRES SERVIER, priority 2021, published 2024).

Assay [1] deals with AMO-1 multiple myeloma xenografts. Put plainly: Anti-tumor activity in vivo (Example D). The arrangement: species or system SCID mice. As for the experimental part: The anti-tumor activity of the compounds of the invention was evaluated using AMO-1 multiple myeloma xenografts.
1×10^7 cells were subcutaneously grafted into immunosuppressed SCID mice. 7-10 days later, when the tumor mass had reached an average volume of about 150 mm^3, mice were treated with the various compounds once a week for 2 weeks (per os, HEC 1%/Tween 80 99:1). Tumor size was measured three times per week using electronic calipers.
At the end of the treatment cycle (d9), tumor growth inhibition (TGI) was calculated using the formula: […]
wherein DTV (Delta Tumor Volume) at Dx was calculated as follows: […]
(Tumor Volume at Dx)−(Tumor Volume at Randomization).

The next assay has as its system NCI-H929 cell lines. Briefly: In vitro cytotoxicity, CellTiter-Glo (CTG) assay (Example B, Method B). In kind it is cell-based. Conditions: Homo sapiens, NCI-H929, 48 h, NCI-H929 cells, 48 h incubation, read-out: C50. The gist of the method: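 ATP-based luminescence (CellTiter-Glo) after 48 h incubation at 37° C., 5% CO2 gave NCI-H929 viability. Eleven concentrations tested, highest final 30 μM, dispensed acoustically from 10 mM DMSO stocks; C50 defined as concentration reaching 50% viability.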
(Cellular ATP, detected with luciferase, serves as a proxy for viable cell number.)

Assay [2] has as its target Cy5-labelled Mcl1 (amino acids 171-321) C286S protein (UniProtKB Q07820) (Homo sapiens (Human), UniProt Q07820, C286S). Put plainly: Inhibition of Mcl-1 by the fluorescence quenching assay (Example A, Method B). The format is binding. The gist of the method: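 Eleven-point compound series incubated 2 h at room temperature with 1 nM Cy5-tagged protein and quencher-labelled PUMA peptide at 10, 20 or 400 nM in HEPES/NaCl/Tween 20, pH 7.4, 5% DMSO. IC50 for 50% fluorescence increase by 4-parameter fit, then Ki derived (complete cKi or estimated eKi).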

Assay [3] deals with AMO-1 multiple myeloma xenograft. Put plainly: Quantification of the cleaved form of PARP in vivo, IV (Example E). Also noted: species or system SCID mice. Conditions: single dose. On the procedure:
(§1) The ability of the compounds of the invention to induce apoptosis was evaluated in vivo using the AMO-1 multiple myeloma xenograft.
1×10^7 cells were subcutaneously grafted into immunosuppressed SCID mice. 12-14 days later, when tumors had reached the appropriate volume, mice (3 per group) were treated once with the various compounds (IV). Tumor samples were recovered 6 or 16 hours after dosing and lysed. Cleared lysates were used for cleaved PARP quantification (as a marker of apoptosis induction) using the Meso Scale Discovery (MSD) Elisa platform test. Results are expressed as the ratio between cleaved PARP in treated mice over control mice.

Assay [4] has the same test system. Briefly: Quantification of the cleaved form of PARP in vivo, per os (Example C). Also noted: species or system SCID mice. The note with it: single dose per os, tumors recovered 16 hours after dosing. As for the experimental part: as §1
1×10^7 cells were subcutaneously grafted into immunosuppressed SCID mice. 12-14 days later, when tumors had reached the appropriate volume, mice (3 per group) were treated once with the various compounds (per os, HEC 1%/Tween 80 99:1). Tumor samples were recovered 16 hours after dosing and lysed. Cleared lysates were used for cleaved PARP quantification (as a marker of apoptosis induction) using the Meso Scale Discovery (MSD) Elisa platform test. Results are expressed as the ratio between cleaved PARP in treated mice over control mice.

Assay [5] has as its system H929 multiple myeloma tumor line. Put plainly: In vitro cytotoxicity, MTT assay (Example B, Method A). The format is cell-based. The note with it: Homo sapiens, NCI-H929, 48 h, H929 cells, 48 hours exposure, read-out: C50. On the procedure:
The cytotoxicity studies were carried out on the H929 multiple myeloma tumor line.
The cells are distributed onto microplates and exposed to the test compounds for 48 hours. The cell viability is then quantified by a colorimetric assay, the Microculture Tetrazolium Assay (Carmichael et al, Cancer Res. 1987, 47, 939-942).
The results are expressed in C50 which means concentration corresponding to […] of effect/inhibition.

[6] abbreviates: 30 mpk per os once a week for 2 weeks.
The mark [7] stands for this setting: 60 mpk per os once a week for 2 weeks.
Setting [8] is: 120 mpk per os once a week for 2 weeks.

Each structure is given as a SMILES string. Where two headings read alike, the source gives them in different places.

Cy5-labelled Mcl1 (amino acids 171-321) C286S protein, sequence (Q07820 171-321 C286S): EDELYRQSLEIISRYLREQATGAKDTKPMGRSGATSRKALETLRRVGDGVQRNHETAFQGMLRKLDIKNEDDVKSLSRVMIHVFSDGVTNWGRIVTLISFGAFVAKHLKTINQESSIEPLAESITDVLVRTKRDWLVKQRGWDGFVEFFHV

Consider `CC(C)Oc1ccc2c(c1)[C@]1(CC[C@@](Nc3cccc(Cl)c3)(C(=O)O)CC1)[C@@H](C[C@@H](C)COc1ccnc3c1[C@H](C)CCC3)C2` [Example 786, (1r,2′S,4S)-4-(3-chloroanilino)-2′-[(2R)-2-methyl-3-{[(5R)-5-methyl-5,6,7,8-tetrahydroquinolin-4-yl]oxy}propyl]-6′-[(propan-2-yl)oxy]-2′,3′-dihydrospiro[cyclohexane-1,1′-indene]-4-carboxylic acid], for which the “% TGI (d9)” value in assay [1] (setting [6]) stood at 43.2%; in assay [1] (setting [7]), 98.9%. In addition, the IC50 with NCI-H929 cell lines was 77.2 nM. Besides, the Ki in assay [2] worked out at 0.0803 nM.
On to `CCOc1ccc2c(c1)[C@]1(CC[C@@](Nc3cccc(Cl)c3)(C(=O)O)CC1)[C@@H](C[C@@H](C)COc1ccnc3c1[C@H](C)CCC3)C2` [Example 784, (1r,2′S,4S)-4-(3-chloroanilino)-6′-ethoxy-2′-[(2R)-2-methyl-3-{[(5R)-5-methyl-5,6,7,8-tetrahydroquinolin-4-yl]oxy}propyl]-2′,3′-dihydrospiro[cyclohexane-1,1′-indene]-4-carboxylic acid], for which the figures for the “% TGI (d9)” value in assay [1] (setting [6]) and in assay [1] (setting [7]) were 103.6% and 112%, respectively. In addition, the IC50 in the assay on NCI-H929 cell lines was found to be 106 nM. Also, the “Cleaved PARP (fold to control)” value is 227.5 fold to control in assay [3] (15 mpk IV, time-point 6 h); 174.2 fold to control in assay [3] (30 mpk IV, time-point 6 h); 129.9 fold to control in assay [3] (30 mpk IV, time-point 16 h). In addition, the Ki in assay [2] came to 0.0801 nM.
In the case of `C[C@@H](COc1ccnc2c1[C@H](C)CCC2)CN1Cc2cc(F)ccc2[C@]12CC[C@@](Nc1ccc(F)c(Cl)c1)(C(=O)O)CC2` [Example 42, (1s,4S)-4-(3-chloro-4-fluoroanilino)-5′-fluoro-2′-[(2R)-2-methyl-3-{[(5R)-5-methyl-5,6,7,8-tetrahydroquinolin-4-yl]oxy}propyl]-2′,3′-dihydrospiro[cyclohexane-1,1′-isoindole]-4-carboxylic acid], the “% TGI (d9)” value was 25.8% in assay [1] (setting [7]) and 114.1% in assay [1] (setting [8]). Besides, the “Cleaved PARP (fold to control)” value in assay [4] (120 mpk) was 5 fold to control. Also, the Ki in assay [2] (Ki determined from IC50) amounted to 0.294 nM. For the same molecule, the IC50 in assay [5] came to 33.9 nM.
As to `COc1ccc2c(c1)[C@]1(CC[C@@](Nc3cccc(Cl)c3)(C(=O)O)CC1)[C@@H](C[C@@H](C)COc1ccnc3c1[C@H](C)CCC3)C2` [Example 781, (1r,2′S,4S)-4-(3-chloroanilino)-6′-methoxy-2′-[(2R)-2-methyl-3-{[(5R)-5-methyl-5,6,7,8-tetrahydroquinolin-4-yl]oxy}propyl]-2′,3′-dihydrospiro[cyclohexane-1,1′-indene]-4-carboxylic acid], the results for the “% TGI (d9)” value in assay [1] (setting [6]) and in assay [1] (setting [7]) were 76.4% and 107.8%, respectively. Besides, the “Cleaved PARP (fold to control)” value is listed as 11.6 fold to control in assay [4] (30 mpk) and 4.5 fold to control in assay [4] (60 mpk). For the same molecule, in the assay on NCI-H929 cell lines, the IC50 is 82.3 nM. In addition, the Ki in assay [2] came to 0.234 nM.
Turning to `COCCOc1ccc2c(c1)[C@]1(CC[C@@](Nc3cccc(Cl)c3)(C(=O)O)CC1)[C@@H](C[C@@H](C)COc1ccnc3c1[C@H](C)CCC3)C2` [Example 794, (1r,2′S,4S)-4-(3-chloroanilino)-6′-(2-methoxyethoxy)-2′-[(2R)-2-methyl-3-{[(5R)-5-methyl-5,6,7,8-tetrahydroquinolin-4-yl]oxy}propyl]-2′,3′-dihydrospiro[cyclohexane-1,1′-indene]-4-carboxylic acid], the “% TGI (d9)” value was found to be 70.2% in assay [1] (setting [7]) and 51.5% in assay [1] (setting [8]). Also, the “Cleaved PARP (fold to control)” value is reported as 6.8 fold to control in assay [4] (60 mpk) and 12.1 fold to control in assay [4] (120 mpk). Besides, the IC50 in the assay on NCI-H929 cell lines amounted to 44.5 nM. Moreover, the Ki in assay [2] came to 0.213 nM.
As to `C[C@@H](COc1ccnc2c1[C@H](C)CCC2)C[C@H]1Cc2cc3c(cc2[C@]12CC[C@@](Nc1cccc(Cl)c1)(C(=O)O)CC2)OCCO3` [Example 838, (1r,4S,7′S)-4-(3-chloroanilino)-7′-[(2R)-2-methyl-3-{[(5R)-5-methyl-5,6,7,8-tetrahydroquinolin-4-yl]oxy}propyl]-2′,3′,7′,8′-tetrahydrospiro[cyclohexane-1,6′-indeno[5,6-b][1,4]dioxine]-4-carboxylic acid], in assay [1] (setting [7]), the “% TGI (d9)” value was 129.2%. Besides, the “Cleaved PARP (fold to control)” value in assay [4] (30 mpk) is listed as 15 fold to control; in assay [4] (60 mpk), 7.8 fold to control. Also, the IC50 in the assay with NCI-H929 cell lines amounted to 21.6 nM. Besides, in assay [2], the Ki turned out to be 0.0337 nM.
Turning to `Cc1cc2c(cc1C)[C@]1(CC[C@@](Nc3cccc(Cl)c3)(C(=O)O)CC1)[C@@H](C[C@@H](C)COc1ccnc3c1[C@H](C)CCC3)C2` [Example 854, (1r,2′S,4S)-4-(3-chloroanilino)-5′,6′-dimethyl-2′-[(2R)-2-methyl-3-{[(5R)-5-methyl-5,6,7,8-tetrahydroquinolin-4-yl]oxy}propyl]-2′,3′-dihydrospiro[cyclohexane-1,1′-indene]-4-carboxylic acid], the entries for the “% TGI (d9)” value in assay [1] (setting [6]), in assay [1] (setting [7]) and in assay [1] (setting [8]) were 32%, 95.2% and 111.8%, respectively. The “Cleaved PARP (fold to control)” value in assay [4] (30 mpk) is recorded as 6.9 fold to control; in assay [4] (60 mpk) it was 26.4 fold to control; in assay [4] (120 mpk) it was 29.1 fold to control. For the same molecule, in the assay on NCI-H929 cell lines, the IC50 stood at 147 nM. In addition, in assay [2], the Ki was determined as 0.455 nM.
Consider `Cc1c(Cl)cccc1N[C@]1(C(=O)O)CC[C@]2(CC1)c1cc3c(cc1C[C@@H]2C[C@@H](C)COc1ccnc2c1[C@H](C)CCC2)OCO3` [Example 847, (1r,4S,6′S)-4-(3-chloro-2-methylanilino)-6′-[(2R)-2-methyl-3-{[(5R)-5-methyl-5,6,7,8-tetrahydroquinolin-4-yl]oxy}propyl]-6′,7′-dihydro-2′H-spiro[cyclohexane-1,5′-indeno[5,6-d][1,3]dioxole]-4-carboxylic acid], for which the IC50 with NCI-H929 cell lines was found to be 64.3 nM. The “Cleaved PARP (fold to control)” value in assay [3] (7.5 mpk IV, time-point 6 h) is 185.9 fold to control; in assay [3] (15 mpk IV, time-point 6 h), 215 fold to control. For the same molecule, the Ki in assay [2] was found to be 0.0847 nM.
In the case of `COc1cc2c(cc1Cl)C[C@H](C[C@@H](C)COc1ccnc3c1[C@H](C)CCC3)[C@]21CC[C@](Nc2cccc(Cl)c2)(C(=O)O)CC1` [Example 815, (1r,2′S,4S)-5′-chloro-4-(3-chloroanilino)-6′-methoxy-2′-[(2R)-2-methyl-3-{[(5R)-5-methyl-5,6,7,8-tetrahydroquinolin-4-yl]oxy}propyl]-2′,3′-dihydrospiro[cyclohexane-1,1′-indene]-4-carboxylic acid], the “% TGI (d9)” value is 18.7% in assay [1] (setting [7]) and 66.8% in assay [1] (setting [8]). In addition, the figures for the “Cleaved PARP (fold to control)” value in assay [4] (60 mpk) and in assay [4] (120 mpk) were 2.3 fold to control and 4.6 fold to control, respectively. The IC50 in the assay on NCI-H929 cell lines is 87.7 nM. The Ki in assay [2] came to 0.251 nM.
Turning to `C[C@@H](COc1ccnc2c1[C@H](C)CCC2)CN1Cc2cc(F)ccc2[C@]12CC[C@@](Nc1cccc(Cl)c1)(C(=O)O)CC2` [Example 41, (1s,4S)-4-(3-chloroanilino)-5′-fluoro-2′-[(2R)-2-methyl-3-{[(5R)-5-methyl-5,6,7,8-tetrahydroquinolin-4-yl]oxy}propyl]-2′,3′-dihydrospiro[cyclohexane-1,1′-isoindole]-4-carboxylic acid], the “% TGI (d9)” value is recorded as 1% in assay [1] (setting [6]), 7.4% in assay [1] (setting [7]) and 66.8% in assay [1] (setting [8]). Moreover, the IC50 with NCI-H929 cell lines came to 115 nM. Besides, the Ki in assay [2] (Ki determined from IC50) was found to be 0.355 nM.

Broadly, the Ki is the dissociation constant of the complex between target and ligand, obtained from inhibition or displacement.
